Broadly, the IC50 is the concentration at which inhibition is half-maximal. Broadly, the EC50 is the concentration that produces a half-maximal response. For orientation: Kd means a measure of binding affinity in units of concentration.

The test system of assay [1] is NCI-H2122 NSCLC CDX. In words: NCI-H2122 NSCLC CDX model. The format is in vivo. The note with it: RMC-6272 10 mg/kg ip once weekly; sotorasib 100 mg/kg po qd; single agents or combination. As for the experimental part: groups when mean tumor volume reached 400–600 mm 3. Tumor and plasma samples were collected for PK and PD analysis at indicated time points after a single dose of indicated […]
doses. Everolimus was formulated in v/v/v/, 30/5/65 Propylene glycol/Tween 80/H 2O.
NCI-H2122 xenograft studies. Female Balb/c nude mice (Beijing V.R Biotechnology Co. […]
per inoculation. When mean tumor volume reached between 150–200 mm 3, mice were […]
Transcutol/Solutol HS 15/H 2O. Sotorasib (AMG 510) was administered by oral gavage at 100 mg/kg daily and formulated in 2% (w/v) HPMC E-50, 0.5% Tween 80 in 50 mM sodium citrate […]
In vivo pharmacodynamics. Snap frozen tumors collected were homogenized with MSD complete lysis buffer (as prepared according to Meso Scale Discovery kit protocol) using PreCellys Bead Shaker (Bertin Instruments) according to manufacturer's protocol. Phospho-4E-BP1(Thr37/46) Whole Cell Lysate Kit (Meso Scale Discovery) was used to quantify phosphorylation of 4E-BP1 in the tumors according to manufacturer's protocol.
Expression and purification of FKBP12, FRB domain, and RHEB-GTPγS. DNA pET28

For assay [2], the system named is Candida albicans. The note with it: 10 strains of yeast Candida albicans; cited from earlier work.
The test system of assay [3] is AKT S473 phosphorylation (mTORC2). In words: AlphaLISA/MSD analysis of AKT phosphorylation in MDA-MB-468 cells. Format: cell-based. The following applies: MDA-MB-468 cells, read-out: pAKT IC50. How it is done:
(§1) Cell culture and reagents. Cells were obtained from ATCC, grown in appropriate medium supplemented with 10% fetal bovine serum and 1% penicillin/streptomycin and maintained at 37 °C in a humidified incubator at 5% CO 2.
(§2) AlphaLISA and MesoScale Discovery (MSD) analysis of 4EBP1, S6K and AKT phosphorylation. mTOR substrate phosphorylation in MDA-MB-468 cells was assayed using AlphaLISA SureFire Ultra kits for p4EBP1 Thr37/46, p-P70S6K Thr389 and p-AKT1/2/3 Ser473 (PerkinElmer), and MSD Multi-Array Assay Systems for Phospho-4EBP1 (Thr37/46) and Phospho-AKT (Ser473) (MSD). Cells were seeded at 25,000 cells per well and exposed the next day to serial three-fold dilutions of compounds in complete medium with 0.1% dimethylsulfoxide (DMSO). After indicated incubation times, cells were lysed and AlphaLISA or MSD performed according to the manufacturers’ protocols. Samples were read using an EnVision Multilabel Plate Reader (PerkinElmer) using standard AlphaLISA settings or using an MSD plate reader. Data were plotted as a function of logM [compound] with a sigmoidal concentration response (variable slope) model fitted to the data to estimate the inhibitor half-maximum effective concentration (EC 50) in Prism 7 (GraphPad). Alternatively, results were analyzed as percentage of control in which 0% was set as signal from 1 μM Torin1 and 100% was set as the mean of DMSO wells on each plate, and inhibitor EC 50 was estimated as described
Background: Alpha assays give light when donor and acceptor beads are brought close together.

In assay [4] the target is T1, FKBP12-FRB (Homo sapiens, UniProt P42345+P62942).
T1 construct: human mTOR (residues 1360-2549); purchased Thermo Fisher Scientific (ran the assay)
T1 sequence (P62942 whole entry, the tested form may be a part): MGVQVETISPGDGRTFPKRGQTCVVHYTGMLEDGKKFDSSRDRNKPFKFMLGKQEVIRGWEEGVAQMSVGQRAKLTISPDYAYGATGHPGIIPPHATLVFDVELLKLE
T1 sequence (P42345 1360-2549 limits assumed): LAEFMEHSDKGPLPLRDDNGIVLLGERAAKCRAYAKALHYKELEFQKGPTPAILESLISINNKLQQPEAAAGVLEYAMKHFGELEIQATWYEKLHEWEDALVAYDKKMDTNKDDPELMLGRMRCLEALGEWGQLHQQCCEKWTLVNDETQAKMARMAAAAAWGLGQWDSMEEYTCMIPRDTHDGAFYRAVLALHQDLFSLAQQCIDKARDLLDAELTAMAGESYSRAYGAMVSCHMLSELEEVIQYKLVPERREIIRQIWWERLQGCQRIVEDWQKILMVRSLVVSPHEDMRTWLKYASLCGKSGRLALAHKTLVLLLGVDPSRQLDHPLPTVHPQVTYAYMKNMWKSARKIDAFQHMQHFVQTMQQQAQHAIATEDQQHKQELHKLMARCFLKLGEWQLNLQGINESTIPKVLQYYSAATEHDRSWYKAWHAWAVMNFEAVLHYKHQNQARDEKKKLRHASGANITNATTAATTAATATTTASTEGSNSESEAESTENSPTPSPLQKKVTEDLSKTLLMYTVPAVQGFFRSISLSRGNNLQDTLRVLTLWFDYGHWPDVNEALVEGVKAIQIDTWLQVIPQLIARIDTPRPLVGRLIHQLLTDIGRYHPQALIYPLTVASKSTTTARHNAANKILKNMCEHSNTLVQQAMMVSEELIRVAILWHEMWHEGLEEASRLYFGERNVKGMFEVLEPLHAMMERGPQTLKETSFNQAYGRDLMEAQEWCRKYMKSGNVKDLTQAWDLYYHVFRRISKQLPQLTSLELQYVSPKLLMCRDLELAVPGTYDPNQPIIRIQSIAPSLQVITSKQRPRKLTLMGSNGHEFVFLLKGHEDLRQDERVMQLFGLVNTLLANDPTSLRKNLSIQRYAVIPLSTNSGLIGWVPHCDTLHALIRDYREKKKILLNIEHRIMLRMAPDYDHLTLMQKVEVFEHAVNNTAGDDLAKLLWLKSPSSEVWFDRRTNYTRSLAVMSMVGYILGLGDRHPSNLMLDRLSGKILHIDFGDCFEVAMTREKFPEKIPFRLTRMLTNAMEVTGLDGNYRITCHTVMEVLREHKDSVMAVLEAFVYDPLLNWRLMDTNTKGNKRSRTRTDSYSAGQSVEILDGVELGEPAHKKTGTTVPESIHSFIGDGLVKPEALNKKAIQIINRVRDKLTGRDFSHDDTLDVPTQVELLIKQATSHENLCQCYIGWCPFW
Description: TR-FRET ternary complex assay. Format: binding. The following applies: at the assay detection limit. How it is done:
Proteros biostructures GmbH, using a fluorescent probe displacement assay. […]
same conditions, with 6 nM fluorescent probe present. 50 nL compound in DMSO was added to […]
11 different concentrations of compound with a 3-fold dilution factor were tested. After a 6 h incubation at room temperature acceptor fluorescence was read on a plate reader. […]
displacement) were calculated using standard fitting algorithms. The reporter probe is used at a concentration reflecting the tenfold concentration of its own Kd (probe) value. Thus, according to the Cheng Prusoff equation, the Kd value can be calculated with Kd = IC 50 / (1 + (([10 x Kd probe]) / [Kd probe]) = IC 50 / 11.
TR–FRET ternary complex assay. Assay was performed by Thermo Fisher Scientific, using a modification of a previously described protocol. 1 A homogeneous assay mixture was prepared […]
Thermo Fisher Scientific catalog no. A15112) in 50 mM HEPES pH 7.5, 0.01% polysorbate 20, 1 mM EGTA and 10 mM MnCl 2. […]
Nanosyn Lipid Kinase screen. Biochemical inhibition of lipid and related protein kinases was determined by Nanosyn (Santa Clara, CA). […]
was determined by detection of fluorescent substrates using a microfluidic electrophoresis mobility shift assay with a LabChip3000 instrument (Caliper/PerkinElmer). […]
Background: Time-resolved FRET reads energy transfer from a long-lived donor to a nearby acceptor.

Assay [5] deals with p-P70S6K Thr389. In words: AlphaLISA/MSD analysis of S6K phosphorylation in MDA-MB-468 cells. Format: cell-based. The following applies: MDA-MB-468 cells; for IC50: read-out: pS6K IC50. How it is done:
as §1, §2

Assay [6] relates to 4EBP1 T37/T46 phosphorylation (mTORC1). Description: AlphaLISA/MSD analysis of 4EBP1 phosphorylation in MDA-MB-468 cells. The format is cell-based. The note with it: for IC50: MDA-MB-468 cells, read-out: p4EBP1 IC50. As for the experimental part:
as §1, §2

Assay [7] addresses T2, FKBP12 (Homo sapiens, UniProt P62942).
T2 construct: Proteros biostructures GmbH (ran the assay)
Description: FKBP12 binding affinity, fluorescent probe displacement assay.
Description: Thermo Fisher Scientific catalog no. A15112) in 50 mM HEPES pH 7.5, 0.01% polysorbate 20, 1 mM EGTA and 10 mM MnCl 2. Compounds were diluted in DMSO, and assay was initiated by mixing 160 nl of compound with 16 μL of assay mixture, resulting in a final DMSO
concentration of 1%. Reactions were mixed for 30 s on an orbital shaker and incubated for 1 h at

Assay [8] concerns tumor p4EBP1. Description: Tumor PD after a single dose in the MCF-7 CDX model. The following applies: MCF-7 CDX. The format is in vivo, mice.

“Also recorded” adds a separate entry of the source. Where two headings read alike, the source gives them in different places. Bounds are passed on as bounds.

T2 sequence (P62942 whole entry): as the sequence (P62942 whole entry, the tested form may be a part) above

In the case of `C=CC(=O)N1CCN(c2nc(=O)n(-c3c(C)ccnc3C(C)C)c3nc(-c4c(O)cccc4F)c(F)cc23)[C@@H](C)C1` [sotorasib], the “antitumor activity (tumor regressions) in NCI-H2122 CDX model” value in assay [1] is reported as “Neither; also recorded: only modest inhibition of tumor growth”.

As to `CO[C@H]1C[C@@H]2CC[C@@H](C)[C@@](O)(O2)C(=O)C(=O)N2CCCC[C@H]2C(=O)O[C@H]([C@H](C)C[C@@H]2CC[C@@H](O)[C@H](OC)C2)CC(=O)[C@H](C)/C=C(\C)[C@@H](O)[C@@H](OC)C(=O)[C@H](C)C[C@H](C)/C=C/C=C/C=C/1C` [compound 1, Rapamycin, reference compound], the minimum inhibitory concentration in assay [2] is 0.02 to 0.2 µg/mL. In addition, in assay [3] (Homo sapiens), the IC50 was over 1000 nM.

Regarding `CO[C@H]1C[C@@H]2CC[C@@H](C)[C@@](O)(O2)C(=O)C(=O)N2CCCC[C@H]2C(=O)O[C@H]([C@H](C)C[C@@H]2CC[C@@H](O)[C@H](OC)C2)C[C@@H](OC)[C@H](C)/C=C(\C)[C@@H](O)[C@@H](OC)C(=O)[C@H](C)C[C@H](C)/C=C/C=C/C=C/1C` [compound 12, C32-methoxy rapamycin], the IC50 was over 1000 nM in assay [3] (Homo sapiens), 0.37 nM in assay [5] (Homo sapiens) and over 1000 nM in assay [6] (Homo sapiens). The EC50 in assay [4] is under 10 nM. Further, the “decrease in potency (pS6K) relative to rapamycin 1” value in assay [5] was found to be 6 fold. This compound also showed a Kd in assay [7] of 701 nM. The “decrease in affinity for FKBP12 relative to rapamycin 1” value in assay [7] is listed as about 1600 fold.

On to `CO[C@H]1C[C@@H]2CC[C@@H](C)[C@@](O)(O2)C(=O)C(=O)N2CCCC[C@H]2C(=O)O[C@H]([C@H](C)C[C@@H]2CC[C@@H](OCCO)[C@H](OC)C2)CC(=O)[C@H](C)/C=C(\C)[C@@H](O)[C@@H](OC)C(=O)[C@H](C)C[C@H](C)/C=C/C=C/C=C/1C` [compound 4, everolimus, reference compound], for which the values for the IC50 in assay [3] (Homo sapiens), in assay [5] (Homo sapiens) and in assay [6] (Homo sapiens) were over 1000 nM, 0.07 nM and over 1000 nM, respectively. In addition, in assay [8] (single dose (38, 40 ip; everolimus 5 mg/kg oral)), the “effect on tumor p4EBP1 levels” value is listed as “minimal effect”.

On to `CO[C@H]1C[C@@H]2CC[C@@H](C)[C@@](O)(O2)C(=O)C(=O)N2CCCC[C@H]2C(=O)O[C@H]([C@H](C)C[C@@H]2CC[C@@H](O)[C@H](OC)C2)C[C@@H](O)[C@H](C)/C=C(\C)[C@@H](O)[C@@H](OC)C(=O)[C@H](C)C[C@H](C)/C=C/C=C/C=C/1C` [compound 11, C32-hydroxy rapamycin], for which, in assay [7], the Kd worked out at 13.3 nM. This lies in the double-digit nanomolar range.

In the case of `CO[C@H]1C[C@@H]2CC[C@@H](C)[C@@](O)(O2)C(=O)C(=O)N2CCCC[C@H]2C(=O)O[C@H]([C@H](C)C[C@@H]2CC[C@@H](OCCCCc3cn(CCOCCOCCOCCOCCOCCOCCOCCOCCC(=O)NCCCCn4nc(-c5ccc6oc(N)nc6c5)c5c(N)ncnc54)nn3)[C@H](OC)C2)CC(=O)[C@H](C)/C=C(\C)[C@@H](O)[C@@H](OC)C(=O)[C@H](C)C[C@H](C)/C=C/C=C/C=C/1C` [compound 16], the IC50 worked out at 3.1 nM in assay [3] (Homo sapiens), 0.42 nM in assay [5] (Homo sapiens) and 1.1 nM in assay [6] (Homo sapiens).

On to `CC(C)n1nc(-c2ccc3oc(N)nc3c2)c2c(N)ncnc21` [compound 5, sapanisertib, reference compound], for which, in assay [3] (Homo sapiens), the concentration for half-maximal inhibition (IC50) was 1.8 nM. Besides, in assay [8] (4 h after intraperitoneal dosing at 1 mg/kg), the “inhibition of tumor p4EBP1” value was over 80%.

In the case of `CO[C@H]1C[C@@H]2CC[C@@H](C)[C@@](O)(O2)C(=O)C(=O)N2CCCC[C@H]2C(=O)O[C@H]([C@H](C)C[C@@H]2CC[C@@H](OCCCCc3cn(CCOCCOCCOCCOCCOCCOCCOCCOCCC(=O)N4CCc5cc(Cn6nc(-c7ccc8oc(N)nc8c7)c7c(N)ncnc76)ccc5C4)nn3)[C@H](OC)C2)CC(=O)[C@H](C)/C=C(\C)[C@@H](O)[C@@H](OC)C(=O)[C@H](C)C[C@H](C)/C=C/C=C/C=C/1C` [compound 21], the figures for the IC50 in assay [3] (Homo sapiens), in assay [5] (Homo sapiens) and in assay [6] (Homo sapiens) were 8.8 nM, 0.13 nM and 0.44 nM, respectively.

Take `CO[C@H]1C[C@@H]2CC[C@@H](C)[C@@](O)(O2)C(=O)C(=O)N2CCCC[C@H]2C(=O)O[C@H]([C@H](C)C[C@@H]2CC[C@@H](OCCCCc3cn(CCOCCOCCOCCOCCOCCC(=O)NCCCCn4nc(-c5ccc6oc(N)nc6c5)c5c(N)ncnc54)nn3)[C@H](OC)C2)CC(=O)[C@H](C)/C=C(\C)[C@@H](O)[C@@H](OC)C(=O)[C@H](C)C[C@H](C)/C=C/C=C/C=C/1C` [compound 28]: the values for the concentration for half-maximal inhibition (IC50) in assay [3] (Homo sapiens), in assay [5] (Homo sapiens) and in assay [6] (Homo sapiens) were 33 nM, 0.37 nM and 25 nM, respectively.

For `CO[C@H]1C[C@@H]2CC[C@@H](C)[C@@](O)(O2)C(=O)C(=O)N2CCCC[C@H]2C(=O)O[C@H]([C@H](C)C[C@@H]2CC[C@@H](OC(=O)NCCOCCOCCOCCOCCOCCOCCOCCOCCC(=O)NCCS(=O)(=O)c3ccc(C(=O)N4CCOc5ccc(-c6ccc(N)nc6)cc5C4)c(C)c3F)[C@H](OC)C2)CC(=O)[C@H](C)/C=C(\C)[C@@H](O)[C@@H](OC)C(=O)[C@H](C)C[C@H](C)/C=C/C=C/C=C/1C` [compound 31], the values for the IC50 in assay [3] (Homo sapiens), in assay [5] (Homo sapiens) and in assay [6] (Homo sapiens) were 2.9 nM, 0.23 nM and 0.7 nM, respectively.

On to BGT226 [compound 7, reference compound], for which the IC50 in assay [3] came to 1.4 nM; in assay [5] it was 0.27 nM; in assay [6] it was 4.4 nM. In assay [6] (pAKT IC50 versus p4EBP1 IC50, MDA-MB-468 cells), the “selectivity (mTORC1/mTORC2 ratio)” value turned out to be 0.3.

The values are drawn from article PMC9841523 (Journal of Medicinal Chemistry, 2022).
